Assay results: patent US9084828B2, “Oligomer-protein tyrosine kinase inhibitor conjugates” (Nektar Therapeutics, priority 2009, dated 2015)

Biological target: ABL(Q252H) (Homo sapiens, UniProt P00519, Q252H)
Test: Activity against various protein tyrosine kinases: ABL(Q252H)
Type: biochemical
Protocol: Using techniques know those of ordinary skill in the art, compounds were tested for activity against various protein tyrosine kinases.

| SMILES | % Inhibition at 10 nM | % Inhibition at 1 μM |
| --- | --- | --- |
| COCCOCCOCCNC(=O)OCCN1CCN(c2cc(Nc3ncc(C(=O)Nc4c(C)cccc4Cl)s3)nc(C)n2)CC1 [mPEG3-NHCOO-Dasatinib] | 98% | 99% |
| COCCOCCOCCOCCOCCOCCOCCNC(=O)OCCN1CCN(c2cc(Nc3ncc(C(=O)Nc4c(C)cccc4Cl)s3)nc(C)n2)CC1 [mPEG7-NHCOO-Dasatinib] | 99% | 99% |
